Laboratory results taken from PMC3002971, “A Universal Approach to Eliminate Antigenic Properties of Alpha-Gliadin Peptides in Celiac Disease” (PLoS ONE, 2010).

What was measured:
DQ8-Glia-α1 T cell clone = test: T cell proliferation assay, DQ8-Glia-α1 T cell clone; assay type: cell-based, human; set-up: key: ± = 100 times reduced T cell stimulation compared to the ‘canonical’ epitope; - = 1000 times reduced T cell stimulation compared to the ‘canonical’ epitope; settings: 3H-thymidine proliferation, triplicate; deamidated peptides, antigen 1–10 µg/ml; stimulation compared to canonical epitope
Protocol: (§1) Gluten specific T cell clones were generated from small intestinal biopsies of celiac disease patients as described before, [11], [12]. All patients signed an informed consent form which was approved by the hospital ethics committee. Proliferation assays were performed in triplicate in 150 µl Iscove's Modified Dulbecco's Medium (Bio Whittaker, Verviers, Belgium) with 10% pooled normal human serum in 96 well flat-bottom plates using 2×10^4 gluten specific T cells stimulated with […] irradiated HLA-DQ2-matched allogeneic peripheral blood mononuclear cells (3000 rad) in the presence or absence of antigen (1–10 µg/ml), [11], [12]. After 2 days ^3H-thymidine (0.5 µCi/well) was added to the cultures, and 18–20 hours thereafter the cells were harvested. ^3H-thymidine incorporation in the T cell DNA was determined with a liquid scintillation counter (1205 Betaplate Liquid Scintillation Counter, LKB Instruments, Gaithersburg, MD). A binding assay was performed as described previously.

[1] = cited from earlier work
Source text: In addition to the canonical epitope motifs, a large series of sequence variants with one or two amino acid substitutions were detected ( Tables 2 , 3 , 4 , 5 ). The large majority of the Gli-B2 gliadins contained sequence variants of the DQ2-Glia-α1, DQ2-Glia-α2, and DQ2-Glia-α3 epitopes with two amino acid substitutions. Furthermore, Gli-A2 transcripts harbored a proline to serine substitution at position 8 (p8) of the DQ2-Glia-α2 epitope and a sequence variant (QGSFRP(S/F)QQN, amino acid substitution in bold) of the DQ8-Glia-α1 epitopes. Importantly, the 33-mer peptide ([…] ...

T cell = settings: cited from earlier work
Source text: Many gluten peptides with T cell stimulatory properties have now been identified. Such peptides have been found in wheat α-, γ-, and ω-gliadins as well as in low molecular weight (LMW) and high molecular weight (HMW) glutenins [8]–[14]. […] An α-gliadin derived 33-mer peptide (amino acid sequence […]) was identified that encodes six partially o ...

[2] = tested on: DQ2-Glia-α1 specific T cell clones; test: T cell proliferation assay, DQ2-Glia-α1 specific T cell clone; assay type: cell-based, human; set-up: key: ± = 100 times reduced T cell stimulation compared to the ‘canonical’ epitope; - = 1000 times reduced T cell stimulation compared to the ‘canonical’ epitope; settings: 3H-thymidine proliferation, triplicate; deamidated 14- to 17-mer peptides, antigen 1–10 µg/ml; stimulation compared to canonical epitope
Protocol: as §1

[3] = tested on: DQ2-Glia-α2 specific T cell clones; test: T cell proliferation assay, DQ2-Glia-α2 specific T cell clone; assay type: cell-based, human; set-up: key: ± = 100 times reduced T cell stimulation compared to the ‘canonical’ epitope; - = 1000 times reduced T cell stimulation compared to the ‘canonical’ epitope; settings: 3H-thymidine proliferation, triplicate; deamidated 14- to 17-mer peptides, antigen 1–10 µg/ml; stimulation compared to canonical epitope
Protocol: as §1

LGEGFFQPSQENP [Peptide 20]
DQ8-Glia-α1 T cell clone (DQ8-Glia-α1 T cell clone): -

LQLQPFPQPQLPYPQPQLPYPQPQLPYPQPQPF [33-mer peptide]
resistance to degradation in the gastrointestinal tract [1]: highly resistant to degradation
T cell stimulatory properties (T cell): very potent T cell stimulatory properties

QPQPFP-PELPYPQTQP [Peptide 15]
Glia-α1 T cell clone [2]: -
Glia-α2 T cell clone [3]: -
